Source: publication PMC12528727 (Nature Communications, 2025)
Where no end group is shown, it is not given here.

Assays:
[1] = tested on: Candida albicans ATCC10231; assay: Antifungal activity assay at 128 µM; format: cell-based; settings: 128 µM peptide; growth curves (Supplementary Fig. 11)
[2] = tested on: NIH/3T3 cells; assay: Cytotoxicity assay; format: cell-based, murine; settings: 128 µM peptide, 24 h, CCK-8, absorbance 450 nm, n = 3
[3] = tested on: Micrococcus luteus ATCC4698; assay: Antibacterial activity screen at 128 µM; settings: 128 µM peptide
[4] = tested on: Bacillus subtilis WB600; assay: Antibacterial activity screen at 128 µM; settings: 128 µM peptide
[5] = tested on: E. coli z44; settings: two-fold dilutions 128 µM to 1 µM; CaMHB, 37 °C, 16 h, OD600; n = 3
[6] = tested on: S. aureus 09057; settings: two-fold dilutions 128 µM to 1 µM; CaMHB, 37 °C, 16 h, OD600; n = 3
[7] = ABTS+ radical scavenging assay; format: biochemical; settings: 1 mg/mL c_AMPs

Sequence: CLCGGKGKKLGKG [C4]
- time for which growth of C. albicans ATCC10231 was inhibited post treatment [1]: up to 2 h

Sequence: GKGAKKGLKGLKG [B3]
- cytotoxicity rate [2]: 6.97%

Sequence: GLCGKGGKCCCGC [C1]
- inhibition of M. luteus ATCC4698 growth [3]: completely inhibit
- effect on B. subtilis WB600 [4]: negatively impacted

Sequence: IRPWRKPRWPWKR [D2]
- minimum inhibitory concentration (MIC), E. coli z44 [5]: 8 µM
- MIC, S. aureus 09057 [6]: 32 µM

Sequence: KKGLGGKLLACKG [A3]
- ABTS^+ free radical scavenging rate [7]: ≥ 90%
- inhibition of M. luteus ATCC4698 growth [3]: completely inhibit
- time for which growth of B. subtilis WB600 was halted post treatment ([4]; growth curves (Supplementary Fig. 11), no inhibition at 16 h): up to 3 h

Sequence: KKPRPWPWKRRKK [D4]
- ABTS^+ free radical scavenging rate [7]: 72%

Sequence: KLKGLLGGKKKLK [A1]
- inhibition of M. luteus ATCC4698 growth [3]: completely inhibit
